Experimental data published in patent US10124059B2, “Dimeric scaffold peptides comprising HIV-1 GP120 and GP41 epitopes” (priority 2011, dated 2018).
Ends that are not written are not given here.

Experiments:
sheep = assay: Serum IgG ELISA after vaccination of sheep; assay type: in vivo; conditions: for Dilution of serum three times background IgG response directed against BI100-cg2 antigen: 500 μg peptide in PBS; for Immune response in vaccinated sheep (in words): by itself or with two different standard adjuvants
Experimental: 100 μl of antigen as indicated (pre-incubated in Coating buffer—0.05M Na2CO3 pH9.6; denoted CB—in cold at 8 μg/ml 1-3 days) or just CB (background control) was used for coating wells in microtiter plates at 4° C. The microtiter plates are then washed 3× with washing buffer (PBS+1% v/v Triton-X100; denoted WB), followed by 2 h blocking at room temperature (RT) with 200 μl/well of blocking buffer (PBS+1% w/v BSA). Plates are then washed 3× with WB, followed by 1 h incubation at 37° C. with 50-70 ul/well of added human (or rabbit or sheep) sera (serial dilutions ranging from 1:5-1:250 in dilution buffer (PBS+1% v/v Triton-X100+1% w/v BSA; denoted DB)). Plates are then washed 6× with WB, followed by 1 h incubation at RT with 70 μl/well of Alkaline Phosphatase-conjugated Protein G (3 μg/ml in DB; Calbiochem 539305) or goat anti-mouse IgG biotin (1 μg/ml, Southern Biotech, 1030-08. In case of the goat anti-mouse IgG biotin, the plates were washed one extra step as described, before addition of 100 μl Streptavidin-Alkaline-Phosphatase (1 μg/ml, Sigma Aldrich, S289) and incubated 1 hour at RT. Plates are then washed 6× with WB, followed by 10-60 min incubation at room temperature with 100 μl/well of 0.3% w/v of Phenophtalein monophosphate (Sigma P-5758). Plates are finally quenched by adding 100 μl/well of Quench solution (0.1M TRIS+0.1M EDTA+0.5M NaOH+0.01% w/v NaN3; pH14), followed by a measurement with a ELISA reader (ASYS UVM 340) at 550 nm. The strength of the sera, i.e. the magnitude of the humoral immune response, is then reported as the dilution of sera that result in the described Optical Density (OD) value, or the OD value at the indicated dilution of sera.
The vaccination of sheep was done with 500 μg of peptide in PBS with the following adjuvants: ISA51 (vaccination week 1, 2, 3, 4, serum from week 6) and Freunds Adjuvant (vaccination weeks 1, 12, 26, serum from week 28). […] This indicate that the constructs can be combined with different adjuvants and induce an IgG response, a signal that an immunological memory has been elicited in sheep.

BALB/c mice = assay: Serum IgG ELISA after vaccination of BALB/c mice; assay type: in vivo
Experimental: 100 μl of antigen as indicated (pre-incubated in Coating buffer—0.05M Na2CO3 pH9.6; denoted CB—in cold at 8 μg/ml 1-3 days) or just CB (background control) was used for coating wells in microtiter plates at 4° C. The microtiter plates are then washed 3× with washing buffer (PBS+1% v/v Triton-X100; denoted WB), followed by 2 h blocking at room temperature (RT) with 200 μl/well of blocking buffer (PBS+1% w/v BSA). Plates are then washed 3× with WB, followed by 1 h incubation at 37° C. with 50-70 ul/well of added human (or rabbit or sheep) sera (serial dilutions ranging from 1:5-1:250 in dilution buffer (PBS+1% v/v Triton-X100+1% w/v BSA; denoted DB)). […] Plates are finally quenched by adding 100 μl/well of Quench solution (0.1M TRIS+0.1M EDTA+0.5M NaOH+0.01% w/v NaN3; pH14), followed by a measurement with a ELISA reader (ASYS UVM 340) at 550 nm. […]

human PBMC = assay: Influenza specific M2e response by ELISPOT assay (B cell response in stimulated PBMC); assay type: cell-based
[1] = system: New Zealand White female rabbits; assay: Rabbit immunizations with BI400-B vaccine, direct ELISA of sera; assay type: in vivo
Experimental: New Zealand White female rabbits (n=3) was immunized intradermally at weeks 0, 2 & 6 with 1 ml of BI400-B vaccine consisting of 500 μg BI400-B in 50% V/V Freund's adjuvant (i.e. Complete Freund's adjuvant used for priming, followed by boostings with Incomplete Freund's adjuvant). Individual blood serum was isolated for ELISA.
50-100 μl of BI400-B (pre-incubated in Coating buffer—0.05M Na2CO3 pH9.6; denoted CB—in cold at 16 μg/ml for each peptide 1-3 days prior to coating) or just CB (background control) is used for coating wells in microtiter plates at 4° C. overnight. The microtiter plates are then washed 3× with washing buffer (PBS+1% v/v Triton-X100; denoted WB), followed by 2 h blocking at room temperature (RT) with 200 μl/well of blocking buffer (PBS+1% w/v BSA). Plates are then washed 3× with WB, followed by 1 h incubation at 37° C. with 50-70 ul/well of added human (or rabbit) sera (serial dilutions ranging from 1:1-1:250 in dilution buffer (PBS+1% v/v Triton-X100+1% w/v BSA; denoted DB)). Plates are then washed 6× with WB, followed by 1 h incubation at RT with 70 μl/well of Alkaline Phosphatase-conjugated Protein G (3 μg/ml in DB; Calbiochem 539305). […] Plates are finally quenched by adding 100 μl/well of Quench solution (0.1M TRIS+0.1M EDTA+0.5M NaOH+0.01% w/v NaN3; pH14), followed by ELISA reader (ASYS UVM 340) at 550 nm.

[2] = Freunds Adjuvant, vaccination weeks 1, 12, 26, serum from week 28
[3] = ISA51, vaccination week 1, 2, 3, 4, serum from week 6

Substance	Dilution of serum three times background IgG response directed against BI100-cg2 antigen (sheep; [2])	Dilution of serum three times background IgG response directed against BI100-cg2 antigen (sheep; [3])	Dilution of serum three times background IgG response directed against BI100-cg2 antigen (sheep; adjuvant None)	Immune response in vaccinated sheep (in words) (sheep)	further results
[WWGC][TDIET][CG][IDTPIR][G][TPIBQDWG] [BI100CGcyc]	125	25	25	induced an immune response	
RRGNWAKVLKNWAKVI (SEQ ID NO: 130) | RRGLLADARVGCGSGADRVCS (SEQ ID NO: 131) (linker (positions not given here) via sulpho‑SMCC; also: sulpho-SMCC linker between Lys and Cys, places not given here) [BI350-1mod1, lysine of first peptide linked to cysteine of second peptide by a sulpho-SMCC linker]					Immune response in vaccinated mice (in words) (BALB/c mice; IgG specific): induced a specific immune response; Serum IgG response (OD) directed against vaccine antigen, Mean (n = 6) (BALB/c mice; s.c. 100 μg peptide + Alhydrogel at weeks 1, 3, 7, serum from week 9): 0.26 OD
[R][SLZTDIETP][Dpr(Aoa)][IDTPIR][G][TPIBQDWG] | [RR][IDTPIR][GG][TPI(Har)QEW][Dpr(Ser)][SLZTDIETPG] [BI150-2mod]					IgG specific B cell response in human PBMC (in words) (human PBMC; IgG): recognised by human memory cells; IgM B cell proliferation in human PBMC (in words) (human PBMC; IgM): able to induce proliferation of IgM B cells
GAKRRVVGGCGGAKRRVVQREKRAGEREKRA (SEQ ID NO: 121) | GKGGIEEEGGRDRDRGGEQDRDR (SEQ ID NO: 122) (thioether (positions not given here); not fully specified (bridges)) [BI400-B, peptides linked via Cys and Lys residues (thioether)]					Character of antibodies generated in animal models (in words) ([1]; animal models): comparable with antibodies elicited in natural HIV infection; Antibody response after immunization (in words) ([1]; rabbits, intradermal 500 μg in Freund's adjuvant at weeks 0, 2 & 6): elicit an efficient antibody response
[RR][SL(Nle)TDIETP][GCG][IDTPIR][G][TPIBQDWG] [BI100-CG]	11000	125	25	induced an immune response	
